Results: ChEMBL document CHEMBL1201862, “PubChem BioAssay data set” (2004)
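Growth conditions: 96-well plates. Treatment: test compound, 48 hours, 5 concentrations. Analysis: linear interpolation between bracketing concentrations; unreached endpoints set to highest concentration. Here, GI50 denotes the concentration required for 50% inhibition of growth.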 Active and inactive are the calls of the source. Cut-off read from the data, not from the text of the source: active = GI50 up to about 1.1 µM and inactive = higher.

How the values were obtained:
Assay in all cases: growth of human tumour cells (NCI), 48 h
786-0 = test system: 786-0
A549 = test system: A549
COLO 205 = test system: COLO 205
HCT-116 = test system: HCT-116
HL-60 = test system: HL-60
HOP-62 = test system: HOP-62
K562 = test system: K562
MDA-N = test system: MDA-N
NCI-H226 = test system: NCI-H226
NCI-H23 = test system: NCI-H23
OVCAR-5 = test system: OVCAR-5
RPMI-8226 = test system: RPMI-8226
SF-268 = test system: SF-268
SK-MEL-28 = test system: SK-MEL-28
SK-MEL-2 = test system: SK-MEL-2
SK-OV-3 = test system: SK-OV-3
SNB-19 = test system: SNB-19
SR = test system: SR
SW-620 = test system: SW-620
UACC-62 = test system: UACC-62

SMILES	GI50 (786-0)	GI50 (A549)	GI50 (COLO 205)	GI50 (HCT-116)	GI50 (HL-60)	GI50 (HOP-62)	GI50 (K562)	GI50 (MDA-N)	GI50 (NCI-H226)	GI50 (NCI-H23)	GI50 (OVCAR-5)	GI50 (RPMI-8226)	GI50 (SF-268)	GI50 (SK-MEL-28)	GI50 (SK-MEL-2)	GI50 (SK-OV-3)	GI50 (SNB-19)	GI50 (SR)	GI50 (SW-620)	GI50 (UACC-62)
Cc1ccc(S(=O)(=O)O)cc1.c1cc2c(c(NC3=NCCN3)c1)CCCC2	> 100 µM (inactive)	> 100 µM (inactive)	> 100 µM (inactive)	> 100 µM (inactive)	> 100 µM (inactive)	> 100 µM (inactive)	> 100 µM (inactive)	> 100 µM (inactive)	> 100 µM (inactive)	> 100 µM (inactive)	> 100 µM (inactive)	> 100 µM (inactive)	> 100 µM (inactive)	> 100 µM (inactive)	> 100 µM (inactive)	> 100 µM (inactive)	> 100 µM (inactive)	> 100 µM (inactive)	56.2 µM (inactive)	> 100 µM (inactive)
CN1C/C(=C\c2cccs2)C2=NC(=S)NC(c3cccs3)C2C1 (stereo unspecified)	> 100 µM (inactive)	50.7 µM (inactive)	31.8 µM (inactive)	64.4 µM (inactive)	2.22 µM (inactive)	> 100 µM (inactive)	44.7 µM (inactive)	66.1 µM (inactive)	> 100 µM (inactive)	77.6 µM (inactive)	> 100 µM (inactive)	29.9 µM (inactive)	61.4 µM (inactive)	93.3 µM (inactive)	> 100 µM (inactive)	> 100 µM (inactive)	> 100 µM (inactive)	18.2 µM (inactive)	> 100 µM (inactive)	81.1 µM (inactive)
CC(=O)N1C(Nc2ccccn2)CCN1c1ccccc1 (stereo unspecified)	> 10 µM (inactive)	> 10 µM (inactive)	> 10 µM (inactive)	> 10 µM (inactive)	> 10 µM (inactive)	> 10 µM (inactive)	> 10 µM (inactive)	> 10 µM (inactive)	> 10 µM (inactive)	> 10 µM (inactive)	> 10 µM (inactive)	> 10 µM (inactive)	> 10 µM (inactive)	> 10 µM (inactive)	> 10 µM (inactive)	> 10 µM (inactive)	> 10 µM (inactive)	> 10 µM (inactive)	> 10 µM (inactive)	
CCc1nc(N)nc(N)c1-c1ccc([N+](C)(C)C)cc1	> 100 µM (inactive)	> 100 µM (inactive)	> 100 µM (inactive)	> 100 µM (inactive)	> 100 µM (inactive)	> 100 µM (inactive)	> 83.4 µM (inactive)	> 100 µM (inactive)	> 100 µM (inactive)	> 100 µM (inactive)	> 100 µM (inactive)	> 100 µM (inactive)	> 100 µM (inactive)	> 100 µM (inactive)	> 100 µM (inactive)	> 100 µM (inactive)	> 100 µM (inactive)	> 100 µM (inactive)	> 100 µM (inactive)	> 100 µM (inactive)
Cc1ccc([N+](=O)[O-])cc1S(=O)(=O)Nc1ccc(C2=NN(C(=O)c3ccccc3)C(c3cccs3)C2)cc1 (stereo unspecified)	17.9 µM (inactive)	19.5 µM (inactive)	16.9 µM (inactive)	22.3 µM (inactive)	26.3 µM (inactive)	20.9 µM (inactive)	22.1 µM (inactive)	23.8 µM (inactive)	21.5 µM (inactive)	15.6 µM (inactive)	42.5 µM (inactive)	31.6 µM (inactive)	20 µM (inactive)	63.5 µM (inactive)	14.9 µM (inactive)	20.6 µM (inactive)	33 µM (inactive)	28.8 µM (inactive)	45.5 µM (inactive)	
CC(=O)c1c2c(cc3c1CC1(C3)Cc3cc4c(c(C(C)=O)c3C1)CCCC4)CCCC2	45.6 µM (inactive)	> 100 µM (inactive)	> 100 µM (inactive)	55.8 µM (inactive)	15.8 µM (inactive)	> 100 µM (inactive)	20.1 µM (inactive)	38.4 µM (inactive)	> 100 µM (inactive)	> 100 µM (inactive)	> 100 µM (inactive)	21.3 µM (inactive)			19.7 µM (inactive)	> 100 µM (inactive)		16.3 µM (inactive)		> 100 µM (inactive)
CC(=O)OC1C(C)OC(OC(=O)C2CCC3C(C2)OC2(CC(OC(=O)/C=C/c4ccccc4)C(C)CO2)C32CO2)C(OC2OC(C)C(O)C(OC(C)=O)C2O)C1O (stereo unspecified)	< 0.01 µM (active)	< 0.01 µM (active)	< 0.01 µM (active)	< 0.01 µM (active)	< 0.01 µM (active)	< 0.012 µM (active)	< 0.01 µM (active)	< 0.01 µM (active)	< 0.01 µM (active)	< 0.01 µM (active)	< 0.01 µM (active)	< 0.01 µM (active)	< 0.01 µM (active)	< 0.01 µM (active)	< 0.01 µM (active)	< 0.01 µM (active)	< 0.01 µM (active)	< 0.01 µM (active)	< 0.01 µM (active)	< 0.01 µM (active)
COc1cc2ccc(/C=C\[N+](=O)[O-])cc2cc1OC	1.68 µM (inactive)	11.4 µM (inactive)	4.07 µM (inactive)	2.34 µM (inactive)	1.97 µM (inactive)	2.83 µM (inactive)	2.39 µM (inactive)	2.18 µM (inactive)	27.7 µM (inactive)	2.5 µM (inactive)	13.1 µM (inactive)	1.67 µM (inactive)	3.36 µM (inactive)	2.66 µM (inactive)	2.86 µM (inactive)	14.3 µM (inactive)	7.52 µM (inactive)	1.98 µM (inactive)	2.65 µM (inactive)	5.15 µM (inactive)
O=C1CCC2(CC1CC(Sc1ccccc1)Sc1ccccc1)OCCO2 (stereo unspecified)	45.7 µM (inactive)	38.2 µM (inactive)	25.2 µM (inactive)		19.8 µM (inactive)	81.1 µM (inactive)	31.9 µM (inactive)	42.4 µM (inactive)	58.7 µM (inactive)	42.7 µM (inactive)	72.4 µM (inactive)	30 µM (inactive)	31.2 µM (inactive)	85.9 µM (inactive)	24.9 µM (inactive)	> 100 µM (inactive)	74.1 µM (inactive)	26.4 µM (inactive)	49.4 µM (inactive)	31.2 µM (inactive)
CC1(C)N=C(/C(Cl)=[N+](/[O-])C(=O)c2ccc(F)cc2)C(C)(C)N1O	14.6 µM (inactive)	45.8 µM (inactive)	18.5 µM (inactive)	16.4 µM (inactive)	10.8 µM (inactive)	19.6 µM (inactive)	2.53 µM (inactive)	16.4 µM (inactive)	22.7 µM (inactive)	17.1 µM (inactive)	18 µM (inactive)	14.2 µM (inactive)	16.9 µM (inactive)	15.8 µM (inactive)	17.1 µM (inactive)	22.6 µM (inactive)	> 100 µM (inactive)	4.16 µM (inactive)	15.1 µM (inactive)	16.7 µM (inactive)
CC(=O)OC1COC(Nc2nc(N)n(C)c(=O)c2N=O)C(OC(C)=O)C1OC(C)=O (stereo unspecified)	> 10 µM (inactive)	> 10 µM (inactive)	> 10 µM (inactive)	> 10 µM (inactive)	> 10 µM (inactive)	> 10 µM (inactive)		> 10 µM (inactive)	> 10 µM (inactive)	> 10 µM (inactive)	> 10 µM (inactive)	> 10 µM (inactive)	> 10 µM (inactive)	> 10 µM (inactive)	> 10 µM (inactive)	> 10 µM (inactive)	> 10 µM (inactive)	> 10 µM (inactive)	> 10 µM (inactive)	> 10 µM (inactive)
O=C(Nc1c(Cl)cc([N+](=O)[O-])cc1Cl)C(=O)C1C(=O)NC(=S)NC1=O	> 100 µM (inactive)	> 100 µM (inactive)		> 100 µM (inactive)	> 100 µM (inactive)	> 100 µM (inactive)	> 100 µM (inactive)	> 100 µM (inactive)	> 100 µM (inactive)	> 100 µM (inactive)	> 100 µM (inactive)	> 100 µM (inactive)	> 100 µM (inactive)	> 100 µM (inactive)	> 100 µM (inactive)	> 100 µM (inactive)	> 100 µM (inactive)	> 10 µM (inactive)	> 100 µM (inactive)	> 100 µM (inactive)
Cc1[nH]n(-c2ncc(C(=O)O)c(=O)[nH]2)c(=O)c1CCO	> 100 µM (inactive)	> 85.3 µM (inactive)	> 88.9 µM (inactive)	> 100 µM (inactive)	> 100 µM (inactive)	> 100 µM (inactive)	> 100 µM (inactive)	> 100 µM (inactive)	> 100 µM (inactive)	> 100 µM (inactive)	> 100 µM (inactive)	> 100 µM (inactive)	> 100 µM (inactive)	> 100 µM (inactive)	> 100 µM (inactive)	> 100 µM (inactive)	> 100 µM (inactive)	> 37 µM (inactive)	> 100 µM (inactive)	> 100 µM (inactive)
O=C1/C(=N/CCc2cc(Br)c(O)c(Br)c2)C=C(O)c2cccnc21	2.22 µM (inactive)	2.1 µM (inactive)	1.75 µM (inactive)	2.46 µM (inactive)	4.88 µM (inactive)	1.11 µM (active)	1.56 µM (inactive)	0.4 µM (active)	1.87 µM (inactive)	0.502 µM (active)	2.03 µM (inactive)	2.82 µM (inactive)	2.19 µM (inactive)	1.78 µM (inactive)	1.52 µM (inactive)	7.26 µM (inactive)	2.3 µM (inactive)	0.771 µM (active)	2.17 µM (inactive)	1.51 µM (inactive)
